Test results reported in patent US20090169652A1, “Personal Care Compositions” (priority 2007, published 2009).

Experiments:
[1] = system: skin; experiment: clinical study of skin condition; format: in vivo; conditions: clinical study by applicant
[2] = system: Xgene human skin equivalent culture model; experiment: collagen expression in Xgene human skin equivalent culture model; format: cell-based
[3] = system: MatTek human skin equivalent culture model; experiment: collagen expression in MatTek human skin equivalent culture model; format: cell-based

`CC(=O)C1C(=O)C=C(C)OC1=O` (stereo not shown) [SDA, sodium dehydroacetic acid] was tested, and the “appearance of fine lines and wrinkles” value [1] was “unexpected improvement in the appearance of fine lines and wrinkles”, the “skin condition related to reduced oil” value [1] was “expected improvements in skin condition related to reduced oil” and the collagen expression [2] was “up-regulated collagen expression”. The collagen expression [3] was “up-regulated collagen expression”.
